Source: the supplement of paper PMC10307832

Legend:
Test in all cases: relative viability (nuclei count vs DMSO), 5 days (fraction); higher = more cells survive
[1] = compound: CC1=C(C(=O)N2C=CSC2=N1)CCN3CCC(=C(C4=CC=CC=C4)C5=CC=C(C=C5)F)CC3 + CC(=O)Nc1cccc(-n2c(=O)n(C3CC3)c(=O)c3c(Nc4ccc(I)cc4F)n(C)c(=O)c(C)c32)c1 [Trametinib] (partner 0.02 µM)
Summary of the method: (§1)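 Lung cancer cell lines in 1536-well plates were dosed by pin tool the day after seeding, either with one drug alone or with a fixed anchor-drug dose plus five library-drug doses (not always all listed) in √10 steps. After 5 days, cells were fixed and their nuclei stained in one step (final 0.05% Triton X-100, 1% formaldehyde, 1 ug/ml Hoechst), then counted on 4× images. Relative viability is the nuclei count in treated wells divided by that in vehicle wells. Values are medians of duplicate plates.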

[2] = compound: CC1=C(C(=O)N2C=CSC2=N1)CCN3CCC(=C(C4=CC=CC=C4)C5=CC=C(C=C5)F)CC3 + CS(=O)(=O)CCNCc1ccc(-c2ccc3ncnc(Nc4ccc(OCc5cccc(F)c5)c(Cl)c4)c3c2)o1 [Lapatinib] (partner 2 µM)
Summary of the method: as §1

[3] = compound: CC1=C(C(=O)N2C=CSC2=N1)CCN3CCC(=C(C4=CC=CC=C4)C5=CC=C(C=C5)F)CC3 + O=C(c1cc(Cc2n[nH]c(=O)c3ccccc23)ccc1F)N1CCN(C(=O)C2CC2)CC1 [Olaparib] (partner 8 µM)
Summary of the method: as §1

[4] = compound: CC1=C(C(=O)N2C=CSC2=N1)CCN3CCC(=C(C4=CC=CC=C4)C5=CC=C(C=C5)F)CC3 + N=C(N)NC(=N)NCCc1ccccc1 [Phenformin] (partner 250 µM)
Summary of the method: as §1

Cell Line: COR-L23
- relative viability ([1]; first compound 0.08 µM): 0.748
- relative viability ([1]; first compound 0.253 µM): 0.612
- relative viability ([1]; first compound 0.8 µM): 0.5
- relative viability ([1]; first compound 2.53 µM): 0.731
- relative viability ([1]; first compound 8 µM): 0.372
- relative viability ([2]; first compound 0.08 µM): 1.13
- relative viability ([2]; first compound 0.253 µM): 1.1
- relative viability ([2]; first compound 0.8 µM): 1.12
- relative viability ([2]; first compound 2.53 µM): 0.921
- relative viability ([2]; first compound 8 µM): 0.638
- relative viability ([3]; first compound 0.08 µM): 0.311
- relative viability ([3]; first compound 0.253 µM): 0.32
- relative viability ([3]; first compound 0.8 µM): 0.344
- relative viability ([3]; first compound 2.53 µM): 0.376
- relative viability ([3]; first compound 8 µM): 0.31
- relative viability ([4]; first compound 0.08 µM): 0.43
- relative viability ([4]; first compound 0.253 µM): 0.449
- relative viability ([4]; first compound 0.8 µM): 0.39
- relative viability ([4]; first compound 2.53 µM): 0.455
- relative viability ([4]; first compound 8 µM): 0.375

Cell Line: LK-2
- relative viability ([1]; first compound 0.08 µM): 0.629
- relative viability ([1]; first compound 0.253 µM): 0.723
- relative viability ([1]; first compound 0.8 µM): 0.886
- relative viability ([1]; first compound 2.53 µM): 0.801
- relative viability ([1]; first compound 8 µM): 0.477
- relative viability ([2]; first compound 0.08 µM): 0.764
- relative viability ([2]; first compound 0.253 µM): 0.772
- relative viability ([2]; first compound 0.8 µM): 1.01
- relative viability ([2]; first compound 2.53 µM): 0.903
- relative viability ([2]; first compound 8 µM): 0.633
- relative viability ([3]; first compound 0.08 µM): 0.726
- relative viability ([3]; first compound 0.253 µM): 0.728
- relative viability ([3]; first compound 0.8 µM): 0.736
- relative viability ([3]; first compound 2.53 µM): 0.756
- relative viability ([3]; first compound 8 µM): 0.514
- relative viability ([4]; first compound 0.08 µM): 0.417
- relative viability ([4]; first compound 0.253 µM): 0.386
- relative viability ([4]; first compound 0.8 µM): 0.301
- relative viability ([4]; first compound 2.53 µM): 0.297
- relative viability ([4]; first compound 8 µM): 0.321

Cell Line: CAL-12T
- relative viability ([1]; first compound 0.08 µM): 0.262
- relative viability ([1]; first compound 0.253 µM): 0.281
- relative viability ([1]; first compound 0.8 µM): 0.267
- relative viability ([1]; first compound 2.53 µM): 0.338
- relative viability ([1]; first compound 8 µM): 0.3
- relative viability ([2]; first compound 0.253 µM): 0.588
- relative viability ([2]; first compound 0.8 µM): 0.754
- relative viability ([2]; first compound 2.53 µM): 0.668
- relative viability ([2]; first compound 8 µM): 0.644
- relative viability ([3]; first compound 0.08 µM): 0.724
- relative viability ([3]; first compound 0.253 µM): 0.718
- relative viability ([3]; first compound 0.8 µM): 0.79
- relative viability ([3]; first compound 2.53 µM): 0.763
- relative viability ([3]; first compound 8 µM): 0.6
- relative viability ([4]; first compound 0.08 µM): 0.55
- relative viability ([4]; first compound 0.253 µM): 0.593
- relative viability ([4]; first compound 0.8 µM): 0.544
- relative viability ([4]; first compound 2.53 µM): 0.605
- relative viability ([4]; first compound 8 µM): 0.346

Cell Line: NCI-H1437
- relative viability ([1]; first compound 0.08 µM): 0.385
- relative viability ([1]; first compound 0.253 µM): 0.56
- relative viability ([1]; first compound 0.8 µM): 0.588
- relative viability ([1]; first compound 2.53 µM): 0.601
- relative viability ([1]; first compound 8 µM): 0.28
- relative viability ([2]; first compound 0.253 µM): 0.718
- relative viability ([2]; first compound 0.8 µM): 0.88
- relative viability ([2]; first compound 2.53 µM): 0.928
- relative viability ([2]; first compound 8 µM): 0.487
- relative viability ([3]; first compound 0.08 µM): 0.658
- relative viability ([3]; first compound 0.253 µM): 0.692
- relative viability ([3]; first compound 0.8 µM): 0.66
- relative viability ([3]; first compound 2.53 µM): 0.692
- relative viability ([3]; first compound 8 µM): 0.51
- relative viability ([4]; first compound 0.08 µM): 0.303
- relative viability ([4]; first compound 0.253 µM): 0.362
- relative viability ([4]; first compound 0.8 µM): 0.334
- relative viability ([4]; first compound 2.53 µM): 0.288
- relative viability ([4]; first compound 8 µM): 0.308

Cell Line: NCI-H23
- relative viability ([1]; first compound 0.08 µM): 0.38
- relative viability ([1]; first compound 0.253 µM): 0.343
- relative viability ([1]; first compound 0.8 µM): 0.387
- relative viability ([1]; first compound 2.53 µM): 0.368
- relative viability ([1]; first compound 8 µM): 0.22
- relative viability ([2]; first compound 0.08 µM): 0.932
- relative viability ([2]; first compound 0.253 µM): 0.829
- relative viability ([2]; first compound 0.8 µM): 1.04
- relative viability ([2]; first compound 2.53 µM): 1.35
- relative viability ([2]; first compound 8 µM): 0.621
- relative viability ([3]; first compound 0.08 µM): 0.287
- relative viability ([3]; first compound 0.253 µM): 0.281
- relative viability ([3]; first compound 0.8 µM): 0.274
- relative viability ([3]; first compound 2.53 µM): 0.276
- relative viability ([3]; first compound 8 µM): 0.23
- relative viability ([4]; first compound 0.08 µM): 0.757
- relative viability ([4]; first compound 0.253 µM): 0.668
- relative viability ([4]; first compound 0.8 µM): 0.782
- relative viability ([4]; first compound 2.53 µM): 0.773
- relative viability ([4]; first compound 8 µM): 0.564

Cell Line: NCI-H727
- relative viability ([1]; first compound 0.08 µM): 0.342
- relative viability ([1]; first compound 0.253 µM): 0.365
- relative viability ([1]; first compound 0.8 µM): 0.366
- relative viability ([1]; first compound 2.53 µM): 0.397
- relative viability ([1]; first compound 8 µM): 0.39
- relative viability ([2]; first compound 0.08 µM): 0.778
- relative viability ([2]; first compound 0.253 µM): 0.674
- relative viability ([2]; first compound 0.8 µM): 0.757
- relative viability ([2]; first compound 2.53 µM): 0.984
- relative viability ([2]; first compound 8 µM): 0.553
- relative viability ([3]; first compound 0.08 µM): 0.86
- relative viability ([3]; first compound 0.253 µM): 0.734
- relative viability ([3]; first compound 0.8 µM): 0.667
- relative viability ([3]; first compound 2.53 µM): 0.689
- relative viability ([3]; first compound 8 µM): 0.599
- relative viability ([4]; first compound 0.08 µM): 0.593
- relative viability ([4]; first compound 0.253 µM): 0.55
- relative viability ([4]; first compound 0.8 µM): 0.481
- relative viability ([4]; first compound 2.53 µM): 0.464
- relative viability ([4]; first compound 8 µM): 0.47

Cell Line: NCI-H1915
- relative viability ([1]; first compound 0.08 µM): 0.331
- relative viability ([1]; first compound 0.253 µM): 0.326
- relative viability ([1]; first compound 0.8 µM): 0.322
- relative viability ([1]; first compound 2.53 µM): 0.283
- relative viability ([1]; first compound 8 µM): 0.261
- relative viability ([2]; first compound 0.08 µM): 1.22
- relative viability ([2]; first compound 0.253 µM): 1.07
- relative viability ([2]; first compound 0.8 µM): 0.959
- relative viability ([2]; first compound 2.53 µM): 1.12
- relative viability ([2]; first compound 8 µM): 0.691
- relative viability ([3]; first compound 0.08 µM): 0.254
- relative viability ([3]; first compound 0.253 µM): 0.272
- relative viability ([3]; first compound 0.8 µM): 0.284
- relative viability ([3]; first compound 2.53 µM): 0.238
- relative viability ([3]; first compound 8 µM): 0.223
- relative viability ([4]; first compound 0.08 µM): 0.376
- relative viability ([4]; first compound 0.253 µM): 0.377
- relative viability ([4]; first compound 0.8 µM): 0.365
- relative viability ([4]; first compound 2.53 µM): 0.363
- relative viability ([4]; first compound 8 µM): 0.317
